# Experimental data as given in ChEMBL document CHEMBL3045327, “Synthesis, cytotoxic evaluation, and in silico studies of substituted N-alkylbromo-benzothiazoles” (Med Chem Res, 2013).
# Assays:
# Format in all cases: functional, cell-based
# [1] = system: PC-3; assay: Cytotoxicity against Homo sapiens (human) PC3 cells after 48 hr by SRB assay; settings: for IC50: PC-3, 48 h
# [2] = system: THP-1; assay: Cytotoxicity against Homo sapiens (human) THP1 cells after 48 hr by SRB assay; settings: for IC50: THP-1, 48 h
# [3] = system: A549; assay: Cytotoxicity against Homo sapiens (human) A549 cells after 48 hr by SRB assay; settings: for IC50: A549, 48 h
# [4] = system: Caco-2; assay: Cytotoxicity against Homo sapiens (human) Caco2 cells after 48 hr by SRB assay; settings: Caco-2, 48 h
SMILES,Activity [1],Activity [2],Activity [3],IC50 [4],IC50 [1],IC50 [2],IC50 [3]
CC(=O)O[C@H]1C(=O)[C@@]2(C)[C@H]([C@H](OC(=O)c3ccccc3)[C@]3(O)C[C@H](OC(=O)[C@H](O)[C@@H](NC(=O)c4ccccc4)c4ccccc4)C(C)=C1C3(C)C)[C@]1(OC(C)=O)CO[C@@H]1C[C@@H]2O,Dose-dependent effect,Dose-dependent effect,Dose-dependent effect,–,–,–,–
O=c1[nH]cc(F)c(=O)[nH]1 [FLUOROURACIL],Dose-dependent effect,Dose-dependent effect,Dose-dependent effect,21 µM,–,–,–
Cc1ccc2nc(NCCBr)sc2c1,Dose-dependent effect,Dose-dependent effect,Dose-dependent effect,67.7 µM,40.9 µM,39.9 µM,> 100 µM
Cc1ccc2nc(NCCCBr)sc2c1,Dose-dependent effect,Dose-dependent effect,Dose-dependent effect,81.6 µM,53.3 µM,30.3 µM,> 100 µM
Fc1ccc2nc(NCCBr)sc2c1,Dose-dependent effect,Dose-dependent effect,Dose-dependent effect,16.8 µM,9.9 µM,1 µM,67.6 µM
Clc1ccc2nc(NCCBr)sc2c1,Dose-dependent effect,Dose-dependent effect,Dose-dependent effect,> 100 µM,99 µM,97.8 µM,> 100 µM
Fc1ccc2nc(NCCCBr)sc2c1,Dose-dependent effect,Dose-dependent effect,Dose-dependent effect,93.7 µM,2.5 µM,0.9 µM,> 100 µM
Clc1cc2nc(NCCBr)sc2cc1Cl,Dose-dependent effect,Dose-dependent effect,Dose-dependent effect,8.4 µM,24 µM,8.46 µM,85.5 µM
Clc1cccc2sc(NCCCBr)nc12,Dose-dependent effect,Dose-dependent effect,Dose-dependent effect,> 100 µM,3.1 µM,1.72 µM,> 100 µM
COc1ccc2nc(NCCBr)sc2c1,Dose-dependent effect,Dose-dependent effect,Dose-dependent effect,47.9 µM,100 µM,110 µM,> 100 µM
Clc1cccc2sc(NCCBr)nc12,Dose-dependent effect,Dose-dependent effect,Dose-dependent effect,26.9 µM,110 µM,110 µM,> 100 µM
COc1ccc2nc(NCCCBr)sc2c1,Dose-dependent effect,Dose-dependent effect,Dose-dependent effect,9.9 µM,0.6 µM,3 µM,89.9 µM
Clc1cc2nc(NCCCBr)sc2cc1Cl,Dose-dependent effect,Dose-dependent effect,Dose-dependent effect,63 µM,28 µM,7 µM,> 100 µM
Clc1ccc2nc(NCCCBr)sc2c1,Dose-dependent effect,Dose-dependent effect,Dose-dependent effect,33 µM,62.8 µM,60 µM,> 100 µM
CO[C@@]12[C@H](COC(N)=O)C3=C(C(=O)C(C)=C(N)C3=O)N1C[C@@H]1N[C@@H]12 [MITOMYCIN],Dose-dependent effect,Dose-dependent effect,Dose-dependent effect,–,–,1.5 µM,0.4 µM
